Assay results reported in patent publication US11065244B2, “Methods of use of tetrahydroberberine (THB)” (DIGNITY HEALTH, priority 2010, dated 2021).

Key:
[1] = system: D2 receptor and dopamine-opened K+ channels; assay: Dopamine-induced membrane potential hyperpolarization in dissociated SNc DA neurons; type: cell-based, rat
Experimental: All experiments were performed at room temperature (22±1° C.).

SNc DA neurons = assay: Perforated patch current-clamp recording of membrane potential and firing of dissociated SNc DA neurons, substance applied alone; type: cell-based, rat
Experimental: The protocol for preparation of single neurons from the rat SNc was approved by the Institutional Animal Care and Use Committee of the Barrow Neurological Institute. Single DA neurons were acutely dissociated from the SNc of 2-3-week-old Wistar rats following the protocol as previously described. Briefly, rats were anesthetized with isoflurane, and brain tissue was rapidly removed and immersed in cold (2-4° C.) dissection solution which contained: 136.7 mM NaCl, 5 mM KCl, 0.1 mM Na2HPO4, 0.2 mM KH2PO4, 9.84 mM HEPES, 16.6 mM D-glucose, 21.9 mM sucrose, pH 7.3, 330 mOsm, oxygenated with 100% O2 [8]. Three 400-μm coronal slices containing the SNc were cut using a vibrotome (Vibroslice 725M, WPI, Sarasota, Fla.). After cutting, slices were continuously bubbled with 95% O2-5% CO2 at room temperature (22±1° C.) for at least one hour in artificial cerebrospinal fluid (ACSF), which contained: 124 mM NaCl, 5 mM KCl, 24 mM NaHCO3, 1.3 mM MgSO4, 1.2 mM KH2PO4, 2.4 mM CaCl2, and 10 mM glucose, pH 7.4. Thereafter, slices were treated with pronase (1 mg per 6 ml) at 31° C. for 30 minutes in ACSF. The SNc was identified in a coronal slice using a stereo microscope with reference to the rat brain atlas, and was micro-punched out from slices using a well-polished needle. One punched piece was then transferred to a 35-mm culture dish filled with well-oxygenated standard extracellular solution, which contained: 150 mM NaCl, 5 mM KCl, 1 mM MgCl2, 2 mM CaCl2, 10 mM glucose 10, and 10 mM HEPES, pH 7.4 (with Tris-base). The punched piece was then dissociated mechanically using a fire-polished micro-Pasteur pipette under an inverted microscope (Olympus IX-70, Lake Success, N.Y.). The separated cells adhered to the bottom of the culture dish within 30 minutes. In the present study, we used only DA neurons that maintained their original morphological features of polygonal, large or medium somata with 2-4 thick primary dendritic processes were used.
Perforated patch whole-cell recording techniques were employed as previously described. Pipettes (3-5 MΩ) used for perforated patch recording were filled with intracellular recording solution containing 140 mM potassium gluconate, 10 mM KCl, 5 mM MgCl2, and 10 mM HEPES, pH 7.2 (with Tris-OH). The amphotericin B was freshly prepared to 200-240 μg/ml from a 40 mg/ml in DMSO stock. The liquid junction potential was 14 mV calculated using Clamplex 9.2 (Axon Instruments, Foster City, Calif.) and corrections were made for junction potentials post-hoc. After tight seal (>2 GΩ) formation, it usually took about 5-20 min to convert to perforated patch mode, and an access resistance of 20-60 MΩ was accepted to start the experiments. Series resistance was not compensated in this study. The data were filtered at 2 kHz, acquired at 10 kHz and digitized on-line (Digidata 1322 series A/D board, Axon Instruments, Foster City, Calif.). […] Drug application was performed using a computer-controlled “U-tube” system as previously described. All experiments were performed at room temperature (22±1° C.). To enable identification of single, dissociated SNc neurons after a patch-clamp recording session, the recording pipette was filled with a fluorescent dye (lucifer yellow CH, Sigma Chemical Co., St. Louis, Mo., 1.0 mg/ml in the recording electrode) in some experiments. After conversion from the perforated patch to the conventional whole-cell recording mode, the dye was ejected into the cytoplasm by a pulse (200 ms, 0.5 Hz) of hyperpolarizing current (1.0 nA) for 3 min. Labeled cells were visualized using epifluorescence microscopy. […]

SMILES: COc1ccc2c(c1OC)CN1CCc3cc4c(cc3C1C2)OCO4 (stereo not shown) [THB, tetrahydroberberine]
- membrane potential after co-application of dopamine with substance ([1]; 100 μM THB (from −45.6±1.0, n=7), tolbutamide (from −45.3±2.3, n=4)): −38.6±1.2 mV
- altered membrane potential on co-application with dopamine ([1]; difference THB vs tolbutamide p>0.05): 7.0±0.9 mV
- firing rate of spontaneous action potentials after exposure (SNc DA neurons; 100 μM bath-perfusion, before exposure 1.4 Hz, n=7, p<0.05): 2.2 Hz
- membrane potential after exposure to substance alone (SNc DA neurons; 100 μM, before: THB −46.5±0.9 (n=7), tolbutamide −44.4±1.6 (n=5)): −41.3±1.9 mV
